Measured values: patent US9365540B2, “Benzimidazole derivatives as MCH receptor antagonists” (Takeda Pharmaceutical Company Limited, priority 2012, dated 2016)

Tests used:
[1] = system: male diet-induced obese F344/Jcl rats; test: Anorectic effect in male diet-induced obese F344/Jcl rats; type: in vivo, rat; conditions: Rattus norvegicus, po, 48 h, 5 mg/mL suspension at 2 mL/kg, two administrations, food intake for 2 days vs control group, read-out: Food intake suppression rate (%)
Method: Evaluation of Anorectic Effect Using Male Diet-Induced Obese F344/Jcl Rats
Male diet-induced obese F344/Jcl rats (44-50 weeks old) fed with a high-fat diet (D12451: Research Diets) from 5 weeks old were used. From before the start of experiment, the rats were singly housed, given a powder high-fat diet (D12451M: Research Diets), and habituated to oral administration with tap water. The food intake from the evening of the day before the start of experiment to the next morning was measured, and the rats were grouped based on both the food intake and the body weight of the previous day. In the evening of the day of the start of experiment and the next day, 0.5% methylcellulose solution was orally administered to the control group, and 0.5% methylcellulose suspension (5 mg/mL) of the test compound was orally administered to the compound administration group at 2 mL/kg (6 per group for both control group and compound administration group). The food intake for 2 days from the initial administration was measured. The food intake inhibition rate of each compound administration group to the control group was calculated.

[2] = target: T1, human MCHR1 (Homo sapiens, UniProt Q99705); test: MCH receptor 1 antagonistic activity, Ca2+ mobilization assay; type: cell-based; conditions: CHO, test compound 0.1 μM; human MCHR1-expressing CHO cells (clone #4); ligand MCH(4-19) 2 nM; read-out: Inhibitory rate % (0.1 μM)
T1 construct: expressed in transfected cells; host or cells: CHO dhfr- cells, clone #4
How it was run: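 CHO dhfr− cells stably expressing human MCHR1 (clone #4) were used in a fluorometric Ca2+ mobilization assay. Test compounds were run at 0.1 μM, with antagonism expressed as percent inhibition.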

[3] = system: HepG2 cells; test: PLsis (phospholipidosis) inducing potential, NBD-PE uptake; type: cell-based; conditions: 24 hr exposure, relative value to 10 μM Amiodarone, maximum value per unit concentration
Method: Evaluation of PLsis Inducing Potential
DMEM medium, L-glutamine, penicillin-streptomycin, pyruvic acid, and N-(7-nitrobenz-2-oxa-1,3-diazol-4-yl)-1,2-hexadecanoyl-sn-glycero-3-phosphoethanolamine triethylammonium salt (NBD-PE) were purchased from Invitrogen Corporation. As bovine serum albumin (BSA), a product of Thermo Trace Ltd. (Melbourne, Australia) was used, and as Amiodarone, a product of ICN (Costa Mesa, Calif.) was used. A test compound was used in the form of a 10 mM DMSO solution.
FBS was added at a final concentration of 5 vol % to DMEM medium supplemented with L-glutamine, pyruvic acid and penicillin-streptomycin and subjected to the experiment. Culture was performed using 5% carbon dioxide gas-95% air as a gas phase in a CO2 incubator at 37° C. HepG2 cells were suspended in a culture medium at 50×10^4 cells/mL, plated in a 96 well plate at 50 μL/well and precultured for 24 hr. After preculture, the culture medium was removed, a culture medium containing 60 μM NBD-PE was added at 50 μL/well, and a culture medium containing 0.6 μM or 20 μM test compounds were each added at 50 μL/well to HepG2 cells, and the cells were cultured for 24 hr. As a positive control, Amiodarone was used at a final concentration of 10 μM.
After exposure to the test compound for 24 hr, the fluorescence intensity (Ex. 485 nm, Em. 538 nm) of NBD-PE uptaken by the cells was measured by a fluorometer. The measurement value with addition of 0 μM test compound solution was subtracted as a blank, a relative value to the measurement 5 value with addition of 10 μM Amiodarone was calculated, and the maximum value per unit concentration of the test compound was obtained as a phospholipidosis (PLsis) inducing potential.

T1 sequence (Q99705 whole entry): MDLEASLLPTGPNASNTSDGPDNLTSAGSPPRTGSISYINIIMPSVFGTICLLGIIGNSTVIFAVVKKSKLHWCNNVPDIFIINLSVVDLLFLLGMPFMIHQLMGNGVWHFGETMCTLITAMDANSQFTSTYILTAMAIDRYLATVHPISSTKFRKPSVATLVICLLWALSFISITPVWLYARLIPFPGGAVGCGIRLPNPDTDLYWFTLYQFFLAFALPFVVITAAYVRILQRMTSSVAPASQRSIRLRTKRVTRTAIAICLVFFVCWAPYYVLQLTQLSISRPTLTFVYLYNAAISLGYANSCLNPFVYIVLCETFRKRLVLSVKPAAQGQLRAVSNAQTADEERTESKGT

| inhibition at 0.1 µM [2] [%] | SMILES | inhibition in vivo at 5000 µg/mL, 10 mg/kg [1] [%] | PLsis inducing potential [3] |
| --- | --- | --- | --- |
| 99 | Cn1c(C2CC2)nc2ccc(-n3ccc(OCc4ccc(F)cc4)cc3=O)cc21 [Example 2, 1-(2-Cyclopropyl-1-methyl-1H-benzimidazol-6-yl)-4-((4-fluorobenzyl)oxy)pyridin-2(1H)-one] | 27.8 | 2.2 |
| 95 | Cc1nc2ccc(-n3ccc(OCc4ccc(F)cc4)cc3=O)cc2n1C [Example 254, 1-(1,2-Dimethyl-1H-benzimidazol-6-yl)-4-((4-fluorobenzyl)oxy)pyridin-2(1H)-one] | 38.7 | 1.7 |
| 100 | CCc1nc2ccc(-n3ccc(OCc4ccc(F)cc4)cc3=O)cc2n1C [Example 63, 1-(2-Ethyl-1-methyl-1H-benzimidazol-6-yl)-4-((4-fluorobenzyl)oxy)pyridin-2(1H)-one] | 45.5 | 1.6 |
